Experiments:
Type in all cases: cell-based, mouse
RBP-Jκ reporter = RBP-Jκ reporter luciferase assay in 3T3-L1 adipocytes; settings: 3T3-L1 adipocytes on rDll4-coated plates
Source text: (§1) Applicants transfected siRNA against mouse Dll4 (Dharmacon), plasmid encoding mouse Dll4 (GeneCopoeia), RBP-Jκ reporter (SABiosciences), and Notch3 intracellular domains (N3ICD) to 3T3-L1 adipocytes by electroporation (Nucleofector system; Amaxa) according to the manufacturer's instructions. The Dll4-expressing plasmid was also transfected to RAW264.7 cells. N3ICD was a generous gift from Dr. Shigeru Chiba (Department of Clinical and Experimental Hematology, Graduate School of Comprehensive Human Sciences, University of Tsukuba). Applicants transfected 2 μg of siRNA or plasmid to cells and harvested them 48 hours or 24 hours after transfection, respectively. Applicants used 5 μl of RBP-Jκ reporter solution for each transfection. After incubation for 24 hours, cells were seeded to rDll4-coated plates and used for the luciferase assay after 48-hour incubation. Luciferase activity was determined using a Dual-Luciferase Reporter Assay System (Promega). Applicants transfected 5 μg of N3ICD to cells and harvested them 24 hours after transfection.

NF-κB pathway = test: NF-κB activation in 3T3-L1 adipocytes (immunoblotting, immunocytochemistry)
Description: Differentiated 3T3-L1 adipocytes were starved for 16 hours and then used for in vitro experiments. For blockade Dll4-mediated Notch signaling, Applicants treated 3T3-L1 adipocytes with Dll4 Ab or IgG (10 μg/ml) and γ-secretase inhibitor (DAPT, 10 μM) or DMSO for 24 hours. To activate Dll4-mediated Notch signaling, Applicants seeded 3T3-L1 adipocytes to plates coated with recombinant mouse Dll4 (rDll4) (1 μg/ml), and then harvested cells after 48-hour incubation (Williams, et al., Blood 107:931-939 (2006)). Applicants also used SN50 (25 μg/ml) NF-κB inhibitor to determine the interaction between Notch signaling and the NF-κB pathway.
Differentiated 3T3-L1 adipocytes incubated in rDll4-coated plates were fixed in 4% paraformaldehyde and permeabilized with 0.1% NP40. After blocking with 1% goat serum, cells were incubated with a rabbit anti-p65 antibody (Santa Cruz Biotechnology), followed by an Alexa Fluor 594-conjugated donkey anti-rabbit Ig antibody (Molecular Probes). Nuclei were counterstained with Hoechst 33342 (Sigma). Cells were observed under an ECLIPSE TE2000-U (Nikon) equipped with a mercury illumination system and SPOT RT Camera (Diagnostic Instruments, Inc.).
Lysates prepared from tissues and cells in lysis buffer containing protease inhibitor cocktail (Sigma) and phosphatase inhibitor cocktail (Roche) were separated with SDS-PAGE gels. Applicants used the following antibodies: NF-κB p65 (Santa Cruz Biotechnology), phospho-NF-κB p65 (Rock Land), IK-Bα (Cell Signaling), and β-actin (Sigma).

[1] = tested on: Dll4-mediated Notch signaling; test: MCP-1 expression in differentiated 3T3-L1 adipocytes
Description: 3T3-L1 preadipocytes (American Type Culture Collection) were maintained in Dulbecco's modified Eagle's medium (DMEM) (Gibco) containing 10% FBS. Differentiation of 3T3-L1 preadipocytes to mature adipocytes was performed as previously described and used as differentiated 3T3-L1 adipocytes at day 10 after the induction of differentiation. Differentiation was initiated two days after cells were confluent by adding fresh medium containing 0.5 mM isobutylmethylxanthine, 1 μM dexamethasone, and 10 μg/ml insulin. After two days, the methylisobutylxanthine and dexamethasone were removed and insulin was maintained for two additional days. On day 4 and thereafter, DMEM containing only 10% FBS was replaced every two days. […]
Applicants transfected siRNA against mouse Dll4 (Dharmacon), plasmid encoding mouse Dll4 (GeneCopoeia), RBP-Jκ reporter (SABiosciences), and Notch3 intracellular domains (N3ICD) to 3T3-L1 adipocytes by electroporation (Nucleofector system; Amaxa) according to the manufacturer's instructions. […] Luciferase activity was determined using a Dual-Luciferase Reporter Assay System (Promega). […]
(§2) Applicants synthesized cDNA from total RNA extracted from tissues and cells. Real-time quantitative RT-PCR was done with a MyiQ single-color real-time PCR detection system (BioRad) and PerfeCTa SYBR Green SuperMix for iQ (Quanta Biosciences). […]

[2] = tested on: Dll4-mediated Notch signaling; test: M1/M2 gene expression in RAW264.7 cells
Description: RAW264.7 cells (American Type Culture Collection) were also maintained in DMEM containing 10% FBS. For blockade of Dll4-mediated Notch signaling, Applicants pre-treated RAW264.7 cells with Dll4 Ab or IgG for 2 hours and then stimulated these cells with 1 ng/ml LPS for 24 hours. LPS stimulation activates the Notch signaling in RAW264.7 cells.
as §1, with “Applicants used 5 μl of RBP-Jκ reporter solution for each transfection. After incubation for 24 hours, cells were seeded to rDll4-coated plates and used for the luciferase assay after 48-hour incubation.” left out, “Applicants transfected 5 μg of N3ICD to cells and harvested them 24 hours after transfection.” left out
as §2

rDll4: recombinant mouse Dll4 coated on plates to activate Dll4-mediated Notch signaling
RBP-Jκ reporter activity (RBP-Jκ reporter): Stimulation
degradation of IκBα (NF-κB pathway): increased
nuclear translocation of p65 (NF-κB pathway): increased
phosphorylation of NF-κB subunit p65 (NF-κB pathway): increased
MCP-1 expression ([1]; 3T3-L1 adipocytes cultured on rDll4-coated dishes): promoted
anti-inflammatory M2 genes (e.g., IL-10) [2]: suppressed
expression of pro-inflammatory M1 genes such as IL-1β and iNOS [2]: induced expression

C[C@H](NC(=O)Cc1cc(F)cc(F)c1)C(=O)N[C@H](C(=O)OC(C)(C)C)c1ccccc1 [DAPT]
MCP-1 RNA expression ([1]; differentiated 3T3-L1 adipocytes, blockade of Notch signaling): produced a similar effect

From patent US8889131B2, “NOTCH inhibition in the treatment and prevention of a metabolic disease or disorder and cardiovascular complications thereof” (The Brigham and Women's Hospital, Inc., priority 2009, dated 2014)
